Reference: patent US20070191495A1, “Lipase inhibitor” (FUJI OIL COMPANY, LIMITED, priority 2004, published 2007)

Assays:
[1] = Digestion and absorption test in mouse; type: in vivo, C57BL/6J mice; conditions: for Body fat percentage: PIXImus2; for Body weight: in g (unit assumed)
Protocol: Using the 2O2 fraction obtained in Preparation Example 1 and mice, a digestion and absorption test was performed for about 2 months. Seven-week-old C57BL/6J mice were pre-reared for 1 week and used for the test. The compounded feed shown in Table 2, which is prepared by partially modifying AIN-93G composition, or soybean oil as a control was fed to the mice for about 2 months. Each group consisted of 6 mice. After reared for about 2 months, a change in the body weight, feed efficiency and body fat percentage were measured. For measuring body fat percentage, an X-ray bone density measuring apparatus for exclusive use in experimental mice, PIXImus2 (GE Medical Systems) was used. As a result of a digestion and adsorption test on mice for 56 days, in a group using the 2O2 fraction, the body weight was reduced by about 10%, the feed efficiency was reduced by 17%, and the body fat percentage was reduced by about 14%.
Using the LUU/UUL fraction obtained in Preparation Example 3 and mice, a digestion and absorption test was performed for about 2 months. Seven-week-old C57BL/6J mice were pre-reared for 1 week and used for the test. The compounded feed shown in Table 5, which is prepared by partially modifying AIN-93G composition, or soybean oil as a control was fed to the mice for about 2 months. Each group consisted of 6 mice. After reared for about 2 months, a change in the body weight, feed efficiency and body fat percentage were measured. For measuring body fat percentage, an X-ray bone density measuring apparatus for exclusive use in experimental mice, PIXImus2 (GE Medical Systems) was used. As a result of a digestion and adsorption test on mice for 56 days, in a group using the […] fraction, the body weight was reduced by about 9%, the feed efficiency was reduced by 12%, and the body fat percentage was reduced by about 13%.
Using the glyceryl ether lipid fraction obtained in Preparation Example 4 and mice, a digestion and absorption test was performed for about 2 months. Seven-week-old C57BL/6J mice were pre-reared for 1 week and used for the test. The compounded feed shown in Table 8, which is prepared by partially modifying AIN-93G composition, or soybean oil as a control was fed to the mice for about 2 months. Each group consisted of 6 mice. After reared for about 2 months, a change in the body weight, feed efficiency and body fat percentage were measured. For measuring body fat percentage, an X-ray bone density measuring apparatus for exclusive use in experimental mice, PIXImus2 (GE Medical Systems) was used. As a result of a digestion and adsorption test on mice for 56 days, in a group using soybean oil/the glyceryl ether lipid fraction, the body weight and the feed efficiency were reduced by bout 10%, and the body fat percentage was reduced by about 12%.

pig pancreatic lipase = molecular target: T1, pig pancreatic lipase (Sus scrofa, UniProt P00591); assay: lipase activity measurement (free fatty acid released from emulsified fat, OD480); type: biochemical; conditions: for Relative activity of test fat to soybean oil: 37° C., 1 hour
T1 construct: purchased Sigma
T1 sequence (P00591 1-450): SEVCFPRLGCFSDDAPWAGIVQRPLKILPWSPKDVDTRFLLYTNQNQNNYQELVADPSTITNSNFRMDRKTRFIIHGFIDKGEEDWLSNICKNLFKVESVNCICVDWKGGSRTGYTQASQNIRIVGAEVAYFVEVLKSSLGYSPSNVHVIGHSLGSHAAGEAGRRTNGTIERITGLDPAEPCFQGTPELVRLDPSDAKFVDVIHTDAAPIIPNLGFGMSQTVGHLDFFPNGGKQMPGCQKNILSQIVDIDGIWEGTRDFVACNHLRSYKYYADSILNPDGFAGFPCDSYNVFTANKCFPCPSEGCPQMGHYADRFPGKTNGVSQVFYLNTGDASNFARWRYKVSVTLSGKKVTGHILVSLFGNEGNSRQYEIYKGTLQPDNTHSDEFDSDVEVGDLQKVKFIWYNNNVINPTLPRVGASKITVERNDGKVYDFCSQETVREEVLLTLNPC
Protocol: (§1) Soybean oils of which 1 part (2O2 purity: about 0.8%), 5 parts (2O2 purity: about 4.2%), 10 parts (2O2 purity: about 8.3%) and 50 parts (2O2 purity about: 41.5%) were replaced with the 2O2 fraction obtained as described above, and the 2O2 fraction itself (2O2 purity: 83%) were used for the following lipase activity measurement. To 80 mg of each oil, 80 mg of phosphatidylcholine (Sigma), 5 mg of sodium taurocholate (Wako Pure Chemical Industries, Ltd.), and 9 ml of a 0.1 M TES buffer (PH 7) containing 0.1 M NaCl were added and the mixture was emulsified with an ultrasound oscillator for 1 minute to obtain a substrate. To 300 μl of the substrate, 5 μl (5U) of a pig pancreatic lipase (Sigma) was added and then reacted at 37° C. for 1 hour. To the reaction mixture was then added 3 ml of an extraction solvent (a mixture of chloroform/heptane/methanol=49 parts/49 parts/2 parts). The mixture was stirred vigorously and then centrifuged at 2500 rpm for 5 minutes. The upper layer was removed. To the lower layer was added 1 ml of a copper regent (prepared by dissolving 2.98 g of triethanolamine, 2.42 g of copper nitrate and 0.48 g of NaOH in 200 ml of water and then adding 66 g of NaCl). The mixture was stirred for 10 minutes and then centrifuged at 2500 rpm for 10 minutes to take 1.5 ml of the upper layer as a sample. To the sample was added 1.5 ml of a color-producing reagent (prepared by 0.2 g of bathocuproin and 0.1 g of butylhydroxyanisole in 200 ml of chloroform) and an absorbance at OD480 was measured as the quantity of free fatty acid.
as §1, with “(LUU/UUL” for “(2O2”, “0.7%),” for “0.8%),”, “3.5%) and” for “4.2%),”, “7.0%)” for “8.3%) and 50 parts (2O2 purity about: 41.5%)”, “LUU/UUL” for “2O2”, “70%)” for “83%)”
Soybean oils of which 1 part, 5 parts and 10 parts were replaced with the glyceryl ether lipid fraction obtained as described above, and the glyceryl ether lipid fraction itself were used for the following lipase activity measurement. To 80 mg of each oil, 80 mg of phosphatidylcholine (Sigma), 5 mg of sodium taurocholate (Wako Pure Chemical Industries, Ltd.), and 9 ml of a 0.1 M TES buffer (PH 7) containing 0.1 M NaCl were added and the mixture was emulsified with an ultrasound oscillator for 1 minute to obtain a substrate. To 300 μl of the substrate, 5 μl (5U) of a pig pancreatic lipase (Sigma) was added and then reacted at 37° C. for 1 hour. To the reaction mixture was then added 3 ml of an extraction solvent (a mixture of chloroform/heptane/methanol =49 parts/49 parts/2 parts). The mixture was stirred vigorously and then centrifuged at 2500 rpm for 5 minutes. […]

[2] = 56 days, versus soybean oil group
[3] = after rearing for 56 days, feed with 10.0 wt % soybean oil + 0.5 wt % test fraction
[4] = before initiation of rearing, feed with 10.0 wt % soybean oil + 0.5 wt % test fraction
[5] = fat composition soybean oil/test fat 0/100 (part), the fraction itself
[6] = fat composition soybean oil/test fat 50/50 (part)
[7] = fat composition soybean oil/test fat 90/10 (part)
[8] = fat composition soybean oil/test fat 95/5 (part)
[9] = fat composition soybean oil/test fat 99/1 (part)
[10] = soybean oil of which 1 part was replaced with the test fat

Relative activity of test fat to soybean oil (pig pancreatic lipase; [5]) | Relative activity of test fat to soybean oil (pig pancreatic lipase; [6]) | Relative activity of test fat to soybean oil (pig pancreatic lipase; [7]) | Relative activity of test fat to soybean oil (pig pancreatic lipase; [8]) | Relative activity of test fat to soybean oil (pig pancreatic lipase; [9]) | activity inhibited by (pig pancreatic lipase; [10]) | activity inhibited by (pig pancreatic lipase; soybean oil of which 5 parts were replaced with the test fat) | activity inhibited by (pig pancreatic lipase; soybean oil of which 10 parts was replaced with the test fat) | Compound | body fat percentage reduced by [1, 2] | body weight reduced by [1, 2] | feed efficiency reduced by [1, 2] | Body fat percentage [1, 3] | Feed efficiency [1, 3] | Body weight [1, 3] | Body fat percentage [1, 4] | Body weight [1, 4]
11% | 48% | 67% | 66% | 78% | about 20% | about 35% | – | CCCCCCCC/C=C\CCCCCCCC(=O)OC(COC(C)=O)COC(C)=O [2O2] | about 14% | about 10% | 17% | 34.8 ± 2.5 | 0.061 ± 0.002 | 30.7 ± 1.4 | 19.1 ± 0.9 | 22.8 ± 0.3
30% | 68% | 74% | 91% | 86% | about 15% | – | about 25% | CCCCCCCC/C=C\CCCCCCCC(=O)OC(COC(=O)CCCCC)COC(=O)CCCCC [6O6] | – | – | – | – | – | – | – | –
